Like-named read-outs stand apart in the source and are kept apart here.

We go through twelve molecules from publication PMC8310135 (Viruses, 2021).

Series [1] in a line: in vitro. Conditions: human; for CC50: CC50 (50% cell cytotoxicity concentration).
Series [2] concerns rLUJV/ZsG. Put plainly: microbe, parasite or virus in culture. Type of series: cell-based, Lujo virus. As to conditions: for activity at 0.05 µM / activity at 0.5 µM / activity at 5 µM: Huh-7, read-out: Relative ZsG (%) Mean; for activity at 0.05 µM: 50 nM; for activity at 0.5 µM: 500 nM; for activity at 5 µM: 5000 nM.
Series [3] concerns LASV. As to conditions: read-out: EC50 for LASV inhibition; cited from earlier work.
Series [4] has as its system wt LUJV. Type of series: cell-based, Lujo virus.
The subject of series [5] is JUNV. As to conditions: read-out: EC50 reported for JUNV; cited from earlier work.
In series [6] the test system is LASV. Conditions: read-out: EC50 reported for LASV; cited from earlier work.
The test system of series [7] is LUJV. As to conditions: cited from earlier work.
The test system of series [8] is LASV. Conditions: read-out: EC50 against LASV; cited from earlier work.
The test system of series [9] is JUNV. Conditions: cited from earlier work.
Series [10] relates to Huh7 cells. As to conditions: human.
The mark [11] stands for this setting: Mammarenavirus lujoense, Huh-7, read-out: EC50 (concentration inhibiting ZsG expression by 50%).
[12] abbreviates: read-out: EC50 (concentration inhibiting ZsG expression by 50%).

In the case of `Cc1cccc(/C=N/Nc2cc(N3CCOCC3)nc(OCCc3ccccn3)n2)c1` [Apilimod], in [1], the viability (commonly a read-out of living cells in per cent, often relative to untreated cells) is > 75%; the viability at 0.05 µM came out at 130%; the viability at 0.5 µM was 115%; the viability at 5 µM was determined as 80%. Moreover, half-maximal cytotoxicity in [1] (CC50) was put at 14.4 ± 3.25 µM. In [2] (setting [11]), the EC50 stood at 1.44 ± 0.6 µM. In series [2] (Mammarenavirus lujoense), the activity at 0.05 µM was 91%, the activity at 0.5 µM was determined as 45% and the activity at 5 µM came to 24%. The EC50 in [2] (setting [12]) stood at 1.44 ± 0.637 µM. Moreover, in series [3], the EC50 is 0.05 µM. The “reduction of wt LUJV viral titers” value in series [4] is listed as “approximately 4 logs”.

As to `NC(=O)c1ncn([C@@H]2O[C@H](CO)[C@@H](O)[C@H]2O)n1` [Ribavirin], in [1], the viability at 0.05 µM came to 124%; the viability at 0.5 µM was 122%; the viability at 5 µM came out at 133%; the CC50 (in general, the concentration that lowers cell viability or growth by half) was > 50 µM. The EC50 in series [2] (setting [11]) was 11.1 ± 1.4 µM. Moreover, in [2] (Mammarenavirus lujoense), the activity at 0.05 µM came to 94%, the activity at 0.5 µM was found to be 73% and the activity at 5 µM came to 63%. Also, the EC50 in series [5] was 18.3 µM. The EC50 in [6] was 2.47 µM.

As for `C[C@@H](c1nc(-c2ccc(C#N)cc2)cs1)[C@](O)(Cn1cncn1)c1cc(F)ccc1F` [Isavucanazole], the “inhibition of LUJV” value in [7] was “did not inhibit”. Moreover, in series [1], the viability at 0.05 µM was 114%, the viability at 0.5 µM was 121%, the viability at 5 µM was found to be 75% and half-maximal cytotoxicity (CC50) was put at 12.7 ± 3.97 µM. Besides, the EC50 in series [8] is 1.2 µM. Also, the “SI (selectivity index, CC50 divided by EC50)” value in series [2] worked out at 2.1. For the same molecule, the EC50 in series [2] (setting [11]) worked out at 6.1 ± 0.9 µM. For the same molecule, in [2] (Mammarenavirus lujoense), the activity at 0.05 µM was found to be 73%, the activity at 0.5 µM came out at 75% and the activity at 5 µM is 34%. For the same molecule, the EC50 in series [2] (setting [12]) stood at 6.11 ± 0.926 µM.

Turning to `CC[C@H](CC#N)OC(=O)N[C@@H](C)c1cccc(NC(=O)Nc2ccc(-c3cnco3)c(OC)c2)c1` [AVN-944], in series [1], the viability is > 75%, the viability at 0.05 µM came out at 103%, the viability at 0.5 µM amounted to 97% and the viability at 5 µM was 64%. Besides, in series [1], the CC50 was > 12.5 µM. In addition, the “reduction of JUNV titers” value in series [9] was > 90%. Besides, the EC50 in series [2] (setting [11]) stood at 0.2 ± 0.09 µM. For the same molecule, in [2] (Mammarenavirus lujoense), the activity at 0.05 µM came out at 43%, the activity at 0.5 µM came to 4% and the activity at 5 µM was determined as 1%. Further, in series [2] (setting [12]), the EC50 turned out to be 0.201 ± 0.089 µM. The “reduction of wt LUJV viral titers” value in series [4] was “approximately 4 logs”.

Regarding `Nc1ccn([C@@H]2O[C@H](CO)[C@@H](O)[C@H]2F)c(=O)n1` [2′-deoxy-2′-fluorocytidine (2-dFC), 2′-deoxy-2′-fluorocytidine], in series [1], the viability is > 75%, the viability at 0.05 µM stood at 117%, the viability at 0.5 µM was 98% and the viability at 5 µM was 105%. Moreover, in series [1], the CC50 was > 50 µM. Further, the EC50 in series [2] (setting [11]) was 0.54 ± 0.21 µM. Besides, in series [2] (Mammarenavirus lujoense), the activity at 0.05 µM is 90%, the activity at 0.5 µM was found to be 27% and the activity at 5 µM came to 2%. Further, the EC50 in [2] (setting [12]) stood at 0.533 ± 0.205 µM. In series [4], the “reduction of wt LUJV viral titers” value is reported as “approximately 4 logs”.

On to `O=C(NCCCNc1nc(Nc2cccc(NC(=O)N3CCCC3)c2)ncc1I)c1cccs1` [BX-795], for which, in series [1], the viability is > 75%, the viability at 0.05 µM turned out to be 128%, the viability at 0.5 µM amounted to 105% and the viability at 5 µM turned out to be 60%. In series [1], this molecule returned a CC50 of 9.91 ± 1.09 µM. Besides, the midpoint of cytotoxicity in [10], the CC50, lay at 9.91 ± 1.09 µM. Besides, the EC50 in [2] (setting [11]) came out at 0.6 ± 0.27 µM. Further, in series [2] (Mammarenavirus lujoense), the activity at 0.05 µM came to 80%, the activity at 0.5 µM worked out at 41% and the activity at 5 µM worked out at 9%. Besides, the EC50 in [2] (setting [12]) was found to be 0.598 ± 0.274 µM. For the same molecule, the “reduction of wt LUJV viral titers” value in series [4] is given as “approximately 4 logs”.

Take `NCC(=O)Nc1ccc(-n2nc(C(F)(F)F)cc2-c2ccc3c(ccc4ccccc43)c2)cc1` [AR-12]: in [1], the viability at 0.05 µM worked out at 129%, the viability at 0.5 µM was found to be 115%, the viability at 5 µM was 1% and the CC50 was determined as 5.5 ± 1.7 µM. The same molecule gave a CC50 in [10] of 5.52 ± 1.67 µM. For the same molecule, the “SI (selectivity index, CC50 divided by EC50)” value in series [2] was determined as 4.5. In addition, in series [2] (setting [11]), the EC50 is 1.2 µM. For the same molecule, in [2] (Mammarenavirus lujoense), the activity at 0.05 µM turned out to be 74%, the activity at 0.5 µM came out at 54% and the activity at 5 µM came out at 2%. Also, the EC50 in series [2] (setting [12]) amounted to 1.23 ± 0.444 µM.

Take `COc1c(C)c2c(c(O)c1C/C=C(\C)CCC(=O)O)C(=O)OC2` [Mycophenolic acid (MPA), Mycophenolic acid]: in series [1], the viability at 0.05 µM turned out to be 132%, the viability at 0.5 µM was 100%, the viability at 5 µM stood at 48% and half-maximal cytotoxicity (CC50) was put at 2 ± 0.4 µM. The midpoint of cytotoxicity in [10], the CC50, lay at 2.04 µM. In [2], the “SI (selectivity index, CC50 divided by EC50)” value came out at 8.6. Further, the EC50 in series [2] (setting [11]) was 0.24 ± 0.1 µM. In addition, in series [2] (Mammarenavirus lujoense), the activity at 0.05 µM turned out to be 72%, the activity at 0.5 µM worked out at 7% and the activity at 5 µM came out at 2%. In [2] (setting [12]), the EC50 was found to be 0.238 ± 0.097 µM.

With `CN(C)C/C=C/C(=O)Nc1cc2c(Nc3ccc(F)c(Cl)c3)ncnc2cc1O[C@H]1CCOC1` [Afatinib], in series [1], the viability at 0.05 µM turned out to be 126%; the viability at 0.5 µM turned out to be 136%; the viability at 5 µM came out at 60%; the midpoint of cytotoxicity, the CC50, lay at 7.64 ± 0.7 µM. Moreover, the CC50 in [10] turned out to be 7.64 ± 0.699 µM. For the same molecule, the “SI (selectivity index, CC50 divided by EC50)” value in [2] is on record as 3.4. For the same molecule, the EC50 in series [2] (setting [11]) worked out at 2.26 ± 0.73 µM. Further, in [2] (Mammarenavirus lujoense), the activity at 0.05 µM was found to be 76%, the activity at 0.5 µM came to 74% and the activity at 5 µM was 2%. Further, in [2] (setting [12]), the EC50 is 2.26 ± 0.734 µM.

For `NC(=O)c1nc(F)c[nH]c1=O` [Favipiravir (T-705), Favipiravir], in series [1], the viability was > 75%, the viability at 0.05 µM was determined as 101%, the viability at 0.5 µM came to 104% and the viability at 5 µM came out at 96%. Moreover, the CC50 in series [1] was > 50 µM. For the same molecule, the EC50 in series [2] (setting [11]) turned out to be 2.95 ± 0.69 µM. Moreover, in series [2] (Mammarenavirus lujoense), the activity at 0.05 µM is 94%, the activity at 0.5 µM worked out at 95% and the activity at 5 µM was 22%. In series [2] (setting [12]), the EC50 came to 2.95 ± 0.693 µM. In addition, the “reduction of wt LUJV viral titers” value in series [4] is listed as “approximately 4 logs”.

In the case of `Cc1c(-c2ccc(-c3ccccc3F)cc2)nc2ccc(F)cc2c1C(=O)O` [Brequinar], in series [1], the viability is > 75%, the viability at 0.05 µM is 113%, the viability at 0.5 µM was found to be 85% and the viability at 5 µM turned out to be 67%. In [1], the CC50 is > 12.5 µM. In addition, the EC50 in [2] (setting [11]) was 0.11 ± 0.02 µM. In addition, in series [2] (Mammarenavirus lujoense), the activity at 0.05 µM is 27%, the activity at 0.5 µM was 2% and the activity at 5 µM came out at 2%. Further, in series [2] (setting [12]), the EC50 was found to be 0.109 ± 0.015 µM. For the same molecule, the “reduction of wt LUJV viral titers” value in series [4] was “approximately 4 logs”.

In the case of `O=C(Nc1ccc([N+](=O)[O-])cc1Cl)c1cc(Cl)ccc1O` [Niclosamide], in series [1], the viability at 0.05 µM was 77%, the viability at 0.5 µM worked out at 2%, the viability at 5 µM was 1% and the CC50 stood at 0.27 µM. Besides, in series [10], half-maximal cytotoxicity (CC50) was put at 0.272 ± 0.034 µM. In addition, in series [2], the “SI (selectivity index, CC50 divided by EC50)” value worked out at 3.2. Moreover, the EC50 in series [2] (setting [11]) came to 0.09 µM. For the same molecule, in [2] (Mammarenavirus lujoense), the activity at 0.05 µM turned out to be 30%, the activity at 0.5 µM was 2% and the activity at 5 µM amounted to 2%. The EC50 in series [2] (setting [12]) was found to be 0.085 ± 0.029 µM. In addition, in series [3], the EC50 was 0.08 µM.
